Reference: patent US20220362386A1, “LIQUID COMPOSITIONS COMPRISING A LEVODOPA AMINO ACID CONJUGATE AND USES THEREOF” (NeuroDerm, Ltd., priority 2019, published 2022)
Counter-ions that a name gives are not always drawn. Like-named read-outs stand apart in the source and are kept apart here. Non-standard residues stand in square brackets, D forms with d. Residues, ends and D or L forms follow the SMILES beside them. Dopa = N[C@@H](Cc1ccc(O)c(O)c1)C(=O)O

Tests used:
[1] = In-vitro metabolism of LDAA compounds using liver microsomes; assay type: in vitro ADME, human; details: for half-life at 0.1 μM / microsomal CLint at 0.1 μM: both sexes, human, pooled human liver microsomes; for half-life at 0.1 μM: pH 7.4, 1.0E−07M, 0.1 mg/mL microsomal protein; for microsomal CLint at 0.1 μM: pH 7.4, calculated from the half-life; for microsomal CLint at 0.1 μM / % Compound Remaining 1st / % Compound Remaining 2nd / % Compound Remaining Mean: 1.0E−07M
Summary of the method: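 Compounds at 0.1 μM were incubated at 37° C with pooled mixed-gender human liver microsomes (0.1 mg/mL protein) in phosphate buffer pH 7.4 plus an NADPH-generating system for 0–60 min. Remaining parent was quantified by HPLC-MS/MS versus time zero; t1/2 came from first-order fits, and Clint = 0.693/(t1/2×protein concentration).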

[2] = In-vitro absorption, Caco-2 A-B permeability; assay type: in vitro ADME, human; details: human, Caco-2, pH 7.4, Caco-2 A-B, without verapamil; for Papp A→B at 60 min, 10 μM: 1.0E−05M
Procedure: (§1) Conditions may be adjusted when necessary.
(§2) D denotes donor and R is receiver. […] V is the volume of the donor or receiver.
(§3) The test was performed with and without verapamil, which is a permeation inhibitor, and the results are presented in Tables 22 (without verapamil) and 34 (with verapamil).

P-gp = assay: In-vitro absorption, Caco-2 A-B permeability; assay type: in vitro ADME, human; details: human, Caco-2, pH 7.4, with verapamil 100 μM on both the A and B sides, Caco-2 A-B, in the presence of verapamil
Procedure: as §1, §2, §3

[3] = Comparative formulation tests, physical stability (Tables 32a-c, 33a-c); assay type: physicochemical; details: LDAA TFA salt/CD formulation; for Physical stability (visual), Day 1: Day 1, room temperature; for Physical stability (visual), Day 2: Day 2, room temperature; for Physical stability (visual), Day 5: Day 5, room temperature after two days at 2-8° C.; for Physical stability (visual), Day 6: Day 6, room temperature after two days at 2-8° C.; for Physical stability (visual), Day 40: Day 40, returned to 2-8° C.
Procedure: It is noted that the formulations were similarly to those above; however, CD was added, and further, the amounts of the antioxidants, i.e., ascorbic acid and NAC, were added at three different concentrations, as detailed in Tables 32a-c below. Further, an additional amount of arginine was added to the solution in order to adjust the pH to a physiologically acceptable pH.
The formulations prepared as detailed in Tables 32a, 32b and 32c were (a) held at room temperature for two days; (b) transferred to a refrigerator (2-8° C.) for two days; and (c) transferred from the refrigerator to room temperature for an additional two days, during which they were assessed again for precipitants. The formulations were then returned to the refrigerator (2-8° C.) and assessed for precipitants on day 40. The physical stability of each formulation was assessed on the first two days and again on the last two days. The physical stability of the formulations was assessed visually. A clear solution was considered to be stable, while a solution comprising precipitants was considered to be physically unstable. The stability results of the formulations of Tables 32a, 32b and 32c are detailed in Tables 33a, 33b and 33c, respectively.

[4] = read-out: Half-Life (minute) 1st
[5] = read-out: Half-Life (minute) 2nd
[6] = read-out: Half-Life (minute) Mean
[7] = read-out: Percent Recovery Mean
[8] = NB 144-15, ~0.1% Asc + ~0.1% NAC
[9] = NB 144-18, ~0.4% Asc + ~0.4% NAC
[10] = NB 144-20, ~0.8% Asc + ~0.8% NAC

## NCCCC[C@H](NC(=O)[C@@H](N)Cc1ccc(O)c(O)c1)C(=O)O [LD-Lys TFA salt, Levodopa Lysine TFA Salt] (H-[Dopa]-Lys-OH)
[1]; [4]
  half-life at 0.1 μM: 91.3 min
[1]; [5]
  half-life at 0.1 μM: 58.3 min
[1]; [6]
  half-life at 0.1 μM: > 60 min
[1]
  microsomal CLint at 0.1 μM: < 116 µL/min/mg
[1]; incubation time 0 minutes
  % Compound Remaining 1st: 100%
  % Compound Remaining 2nd: 100%
  % Compound Remaining Mean: 100%
[1]; incubation time 15 minutes
  % Compound Remaining 1st: {123.5%
  % Compound Remaining 2nd: 96.7%
  % Compound Remaining Mean: 97%
[1]; incubation time 30 minutes
  % Compound Remaining 1st: 64.2%
  % Compound Remaining 2nd: 83.5%
  % Compound Remaining Mean: 74%
[1]; incubation time 45 minutes
  % Compound Remaining 1st: 76.7%
  % Compound Remaining 2nd: {43.7} %
  % Compound Remaining Mean: 77%
[1]; incubation time 60 minutes
  % Compound Remaining 1st: 59.5%
  % Compound Remaining 2nd: 50.4%
  % Compound Remaining Mean: 55%
[2]; read-out: Permeability 1st
  Papp A→B at 60 min, 10 μM: 0.12 ×10⁻⁶ cm/s
[2]; read-out: Permeability 2nd
  Papp A→B at 60 min, 10 μM: 0.09 ×10⁻⁶ cm/s
[2]; read-out: Permeability Mean
  Papp A→B at 60 min, 10 μM: < 0.1 ×10⁻⁶ cm/s
[2]; read-out: Percent Recovery 1st
  recovery at 60 min, 10 μM: 21%
[2]; read-out: Percent Recovery 2nd
  recovery at 60 min, 10 μM: 38%
[2]; [7]
  recovery at 60 min, 10 μM: 30%
P-gp; read-out: Percent Recovery 1st
  recovery at 60 min, 10 μM: 33%
P-gp; read-out: Percent Recovery 2nd
  recovery at 60 min, 10 μM: 33%
P-gp; [7]
  recovery at 60 min, 10 μM: 33%
[3]; [8]
  Physical stability (visual), Day 1: Precipitated
  Physical stability (visual), Day 2: Precipitated
  Physical stability (visual), Day 5: Precipitated
  Physical stability (visual), Day 6: Precipitated
  Physical stability (visual), Day 40: Precipitated
[3]; [9]
  Physical stability (visual), Day 1: Stable
  Physical stability (visual), Day 2: Stable
  Physical stability (visual), Day 5: Precipitated
  Physical stability (visual), Day 6: Precipitated
  Physical stability (visual), Day 40: Precipitated
[3]; [10]
  Physical stability (visual), Day 1: Stable
  Physical stability (visual), Day 2: Stable
  Physical stability (visual), Day 5: Precipitated
  Physical stability (visual), Day 6: Precipitated
  Physical stability (visual), Day 40: Precipitated

## N[C@@H](Cc1ccc(O)c(O)c1)C(=O)N[C@@H](Cc1c[nH]c2ccccc12)C(=O)O [LD-Trp TFA salt, Levodopa Tryptophan] (H-[Dopa]-Trp-OH)
[1]; [4]
  half-life at 0.1 μM: 64 min
[1]; [5]
  half-life at 0.1 μM: 61.4 min
[1]; [6]
  half-life at 0.1 μM: > 60 min
[1]
  microsomal CLint at 0.1 μM: < 116 µL/min/mg
[1]; incubation time 0 minutes
  % Compound Remaining 1st: 100%
  % Compound Remaining 2nd: 100%
  % Compound Remaining Mean: 100%
[1]; incubation time 15 minutes
  % Compound Remaining 1st: 108.6%
  % Compound Remaining 2nd: {96.6} %
  % Compound Remaining Mean: 109%
[1]; incubation time 30 minutes
  % Compound Remaining 1st: 115.2%
  % Compound Remaining 2nd: 92.2%
  % Compound Remaining Mean: 104%
[1]; incubation time 45 minutes
  % Compound Remaining 1st: 70.5%
  % Compound Remaining 2nd: 63.1%
  % Compound Remaining Mean: 67%
[1]; incubation time 60 minutes
  % Compound Remaining 1st: 55.1%
  % Compound Remaining 2nd: 51.6%
  % Compound Remaining Mean: 53%
[2]; read-out: Permeability 1st
  Papp A→B at 60 min, 10 μM: 0.04 ×10⁻⁶ cm/s
[2]; read-out: Permeability 2nd
  Papp A→B at 60 min, 10 μM: 0.03 ×10⁻⁶ cm/s
[2]; read-out: Percent Recovery 1st
  recovery at 60 min, 10 μM: 52%
[2]; read-out: Percent Recovery 2nd
  recovery at 60 min, 10 μM: 51%
[2]; [7]
  recovery at 60 min, 10 μM: 51%
P-gp; read-out: Percent Recovery 1st
  recovery at 60 min, 10 μM: 50%
P-gp; read-out: Percent Recovery 2nd
  recovery at 60 min, 10 μM: 45%
P-gp; [7]
  recovery at 60 min, 10 μM: 47%
[3]; [8]
  Physical stability (visual), Day 1: Stable
  Physical stability (visual), Day 2: Stable
  Physical stability (visual), Day 5: Stable
  Physical stability (visual), Day 6: Stable
  Physical stability (visual), Day 40: Stable
[3]; [9]
  Physical stability (visual), Day 1: Stable
  Physical stability (visual), Day 2: Stable
  Physical stability (visual), Day 5: Stable
  Physical stability (visual), Day 6: Stable
  Physical stability (visual), Day 40: Stable
[3]; [10]
  Physical stability (visual), Day 1: Stable
  Physical stability (visual), Day 2: Stable
  Physical stability (visual), Day 5: Stable
  Physical stability (visual), Day 6: Stable
  Physical stability (visual), Day 40: Stable
